“Also recorded” adds a separate entry of the source.
What was measured:
mAChRs = assay: [3H]DA release assay, superfused rat striatal slices
human M5 mAChR = biological target: T1, human M5 mAChR (Homo sapiens, UniProt P08912); assay: [3H]NMS binding, CHO cell membranes expressing human M5 mAChR
T1 sequence (P08912 1-532): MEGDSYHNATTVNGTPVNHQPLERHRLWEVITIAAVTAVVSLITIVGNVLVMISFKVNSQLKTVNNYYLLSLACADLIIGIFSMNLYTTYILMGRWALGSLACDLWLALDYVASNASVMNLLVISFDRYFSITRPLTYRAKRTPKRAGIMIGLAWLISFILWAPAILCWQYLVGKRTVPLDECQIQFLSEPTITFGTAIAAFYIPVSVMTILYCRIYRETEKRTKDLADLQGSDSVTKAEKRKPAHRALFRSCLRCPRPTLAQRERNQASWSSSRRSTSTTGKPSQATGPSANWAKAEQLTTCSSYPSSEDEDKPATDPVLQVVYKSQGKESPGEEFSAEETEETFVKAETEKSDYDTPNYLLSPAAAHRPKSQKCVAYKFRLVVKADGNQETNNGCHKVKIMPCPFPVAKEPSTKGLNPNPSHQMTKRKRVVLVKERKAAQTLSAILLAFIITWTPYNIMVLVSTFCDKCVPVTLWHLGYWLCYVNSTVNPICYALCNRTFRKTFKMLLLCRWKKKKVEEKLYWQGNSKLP

human M3 mAChR = human M3 mAChR (Homo sapiens, UniProt P20309); conditions: [3H]NMS binding assay; ref [36],[43]; cited from earlier work
M3 mAChR = conditions: ref [36],[43]; cited from earlier work

Chain of human M3 mAChR (P20309 whole entry): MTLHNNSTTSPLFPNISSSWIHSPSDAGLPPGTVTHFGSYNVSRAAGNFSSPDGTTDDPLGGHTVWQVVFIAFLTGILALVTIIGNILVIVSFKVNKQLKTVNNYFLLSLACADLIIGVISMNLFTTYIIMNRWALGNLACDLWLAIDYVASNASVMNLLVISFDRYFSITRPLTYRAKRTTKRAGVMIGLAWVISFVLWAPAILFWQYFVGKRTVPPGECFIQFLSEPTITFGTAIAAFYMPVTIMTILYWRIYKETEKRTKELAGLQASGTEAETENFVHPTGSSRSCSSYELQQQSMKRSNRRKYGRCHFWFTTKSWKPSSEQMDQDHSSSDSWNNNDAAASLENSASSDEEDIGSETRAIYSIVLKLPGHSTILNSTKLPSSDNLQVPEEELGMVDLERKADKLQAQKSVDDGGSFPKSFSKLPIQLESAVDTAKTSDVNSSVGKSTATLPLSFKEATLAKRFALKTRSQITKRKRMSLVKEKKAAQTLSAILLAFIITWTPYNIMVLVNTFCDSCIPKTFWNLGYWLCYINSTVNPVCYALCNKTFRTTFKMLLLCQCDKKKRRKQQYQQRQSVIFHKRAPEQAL

| SMILES | selectivity for M3 over M2 (human M3 mAChR) | effect on carbachol-induced contraction of the isolated rat tracheal muscle (M3 mAChR) | other results |
| --- | --- | --- | --- |
| O=C(OC1CN2CCC1CC2)N(CCc1ccc(F)cc1)c1ccccc1 (racemic) [Compound 3c, (±)-quinuclidin-3-yl-(4-fluorophenethyl)(phenyl)carbamate] |  |  | effect on oxotremorine-evoked [3H]DA overflow (mAChRs; oxotremorine 100 μM, 3c 0.1, 1, 10 μM, significant at 10 μM): augmented oxotremorine-evoked [^3H]DA overflow; also recorded: augmented release evoked by oxotremorine; also recorded: augmented oxotremorine-evoked DA release; fold higher affinity for M5 mAChRs compared to compound 1 (human M5 mAChR): 1200 fold |
| O=C(NCC1CCNCC1)[C@H]1CCCN1C(=O)[C@@H]1C[C@@H](O)CN1C(=O)CC(c1ccc(F)cc1)(c1ccc(F)cc1)c1ccc(F)cc1 [compound 14a, (2R)-1-((2S,4R)-4-hydroxy-1-[3,3,3-tris(4-fluoro-phenyl)propanoyl]-pyrrolidine-2-yl)carbonyl-N-(4-piperidinyl-methyl)pyrrolidine-2-carboxamide] | 1600 fold | inhibition |  |
| O=C1CCCN1CC#CCN1CCCC1 [oxotremorine] |  |  | effect on [3H]DA overflow compared to control (mAChRs; oxotremorine 100 μM): increased [^3H]DA overflow |
| CN1[C@@H]2C[C@H](OC(=O)[C@H](CO)c3ccccc3)C[C@H]1[C@@H]1O[C@@H]12 [scopolamine] |  |  | effect on 3c-evoked [3H]DA overflow (mAChRs; scopolamine 10 μM, 3c 10 μM): inhibited |
| Nc1cccc(CN2CCC(NC(=O)[C@](O)(c3ccccc3)[C@@H]3CCC(F)(F)C3)CC2)n1 [compound A, (2R)-N-[1-(6-aminopyridin-2-ylmethyl)piperidin-4-yl]-2-[(1R)-3,3-difluorocyclopentyl]-2-hydroxy-2-phenylacetamide] | 193 fold | inhibition |  |
